Data as given in US10610535B2 (The Regents of the University of California, priority 2005, dated 2020).

Columns and labels:
ERβ as compared to ERα = ERβ as compared to ERα (Homo sapiens, UniProt Q92731); settings: cited from earlier work
[1] = test system: SJL mice with adoptive EAE; settings: followed for the first 27 days; cited from earlier work
[2] = Serum estriol levels (ELISA) in oral estriol crossover trial; format: in vivo, human; settings: oral estriol 8 milligrams/day, treatment and re-treatment, MS patients
Experimental: (§1) Subjects were evaluated using the Kurtzke's Expanded Disability Status Scale (EDSS) by the same neurologist (RV) throughout the study. At each visit the study nurse (RK) administered the paced auditory serial addition test (PASAT) and the 9-hole peg test. Blood was drawn for SMA12, cholesterol panel, blood counts and hormone levels (estriol, estradiol, estrone, LH, FSH, cortisol, progesterone). Estriol levels in serum were determined by ELISA according to manufacturer's instructions (Oxford Biomedical, Oxford, Mich.).

[3] = test system: women with clinically definite MS; assay: Tolerability and laboratory safety measures, estriol trial and extension phase; format: in vivo, human; settings: oral estriol 8 milligrams/day
Excerpt: Twelve female patients with clinically definite MS were enrolled. Six had RR disease and six had SP disease. All six RR and four of six SP patients completed the entire 18 month study period. […] Of the ten patients who completed the entire study, the mean age was 44 years (range 28 to 50 years) and the mean EDSS was 3.3 (range 1.0 to 6.5). The mean EDSS score for the SP patients was 5.0 while the mean EDSS for the RR patients was 2.2. The 18 month trial was extended in RR patients whereby treatment was re-instituted. Medication. For the initial treatment phase, micronized, U.S.P. graded estriol powder (Medisca, Inc., Plattsburg, N.Y.) was put into capsules by UCLA Pharmaceutical Services.
as §1
Indeed, estrogen cannot be given for a lengthy period of time in an “unopposed” fashion in any woman with a uterus. […]

[4] = test system: DTH responses to tetanus and candida; set-up: species or system human; settings: in vivo
[5] = test system: IFNγ in peripheral blood mononuclear cells (PBMCs); assay: IFNγ levels by RT-PCR of unstimulated PBMCs derived ex vivo; format: in vivo, human
Experimental: Peripheral blood mononuclear cells (PBMCs) were isolated from heparinized venous blood and cryopreserved. PBMCs were thawed in parallel from a given patient during the two pre-treatment timepoints and the two treatment timepoints. Total RNA was isolated, DNA was removed and mRNA was reverse transcribed. Both IFN-γ and actin were amplified from the same cDNA, however, the cDNA was diluted 1:9 prior to amplification for actin. Amplification was done in 1 mM […] using IFN.γ and actin primer sequences (Life Technologies, Rockville, Md.). Complementary DNA was amplified for 35 cycles: 45″ @ 95° C., 60″ @ 54° C. and 45″ @ 72° C. PCR products were separated on a 1.5% agarose gel containing ethidium bromide and densitometry performed.

[6] = test system: women with clinically definite MS; assay: Clinical measures: EDSS, 9-hole peg test, PASAT, relapses; format: in vivo, human
Experimental: as §1

[7] = test system: post-partum patient with relapsing remitting multiple sclerosis; assay: Case of post-partum relapsing remitting MS patient; format: in vivo, human
Experimental: A patient was diagnosed as having relapsing remitting multiple sclerosis. Following the delivery of their first child (now […]), the patient was treated only with Copaxone and relapsed at 6 weeks. Following the delivery of their second child (now […]), the patient was again treated with Copaxone alone and again relapsed, this time at 4.5 months. Following a subsequent pregnancy, the patient was treated with 8 mg estriol/day in an attempt to prevent their post partum relapses.
Following the birth of the patient's third child (now 6 months), the patient resumed treatment with Copaxone as before. However, on day 10 post-partum they began taking estriol 8 mg/daily in an oral dosage form. […] Since monthly brain MRIs with gadolinium to detect enhancing MS lesions are more sensitive for inflammatory disease activity than relapses, the patient underwent serial monthly MRIs at post partum months 4, 5, and 6.
The patient doubled the progesterone minipill for 2 weeks to stabilize the endometrium. Otherwise no adverse events have been reported.

[8] = test system: DTH responses to tetanus and candida; settings: cited from earlier work
[9] = test system: women with clinically definite MS; settings: pilot clinical trial, non-pregnant female MS patients; cited from earlier work
[10] = test system: peripheral blood mononuclear cells; settings: pilot clinical trial, non-pregnant female MS patients; cited from earlier work
EAE mice = settings: cited from earlier work
[11] = test system: women with clinically definite MS; assay: Serial cerebral MRI: gadolinium enhancing lesions and T2 lesion volumes
[12] = 90 day release pellets of 5 or 15 milligrams estriol
[13] = RR patients, first three months of treatment
[14] = RR patients, next three months of treatment

Chain of ERβ as compared to ERα (Q92731 whole entry): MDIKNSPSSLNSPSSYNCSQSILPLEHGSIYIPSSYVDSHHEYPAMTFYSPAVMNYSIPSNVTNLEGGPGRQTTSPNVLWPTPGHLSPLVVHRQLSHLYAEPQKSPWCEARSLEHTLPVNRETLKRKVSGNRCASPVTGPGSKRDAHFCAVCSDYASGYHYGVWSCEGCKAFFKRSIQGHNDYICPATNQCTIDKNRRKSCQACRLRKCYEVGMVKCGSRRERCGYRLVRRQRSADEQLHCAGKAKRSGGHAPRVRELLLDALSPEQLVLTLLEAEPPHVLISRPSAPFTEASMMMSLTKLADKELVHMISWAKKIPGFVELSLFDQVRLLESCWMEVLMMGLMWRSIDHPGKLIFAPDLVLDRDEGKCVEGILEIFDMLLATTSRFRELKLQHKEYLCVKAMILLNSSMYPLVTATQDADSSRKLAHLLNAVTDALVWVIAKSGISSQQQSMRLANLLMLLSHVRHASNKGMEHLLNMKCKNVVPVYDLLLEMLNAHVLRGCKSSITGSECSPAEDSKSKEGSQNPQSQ

## C=Cc1cc(O)cc2nc(-c3ccc(O)c(F)c3)oc12 [WAY-202041]
ERβ as compared to ERα
  Selectivity for ERβ as compared to ERα: 200 fold
[1]
  Effect in adoptive EAE: no effect

## C[C@]12CC[C@@H]3c4ccc(O)cc4CC[C@H]3[C@@H]1CC(O)C2O (some centres unmarked) [estriol, estra-1,3,5(10)-triene-3,16,17-triol]
[2]
  Serum estriol levels: approximated those observed in women who were six months pregnant
[3]
  Laboratory measures including LH, FSH, cortisol, progesterone, estradiol and estrone: no significant alterations
[3]; six months
  Tolerability: well tolerated with only menstrual cycle abnormalities
[4]
  DTH responses to candida: decreased less dramatically and more variably
  DTH responses to tetanus: significantly, P=−0.006, decreased
[5]; four SP patients
  Levels of IFNγ: no decrease
[5]; six RR patients, study month 9 (three months of treatment) vs pretreatment
  Levels of IFNγ: variably decreased
[5]; six RR patients, study month 12 (six months of treatment) vs pretreatment
  Levels of IFNγ: significantly decreased
[6]; 4 RR, L, 9 mo., Estriol Treatment
  Hole Peg Test Score: 24.3
[6]; 4 RR, L, 12 mo., Estriol Treatment
  Hole Peg Test Score: 23.3
[6]; 4 RR, L, 15 mo., Post Treatment
  Hole Peg Test Score: 23.0
[6]; 4 RR, L, 18 mo., Post Treatment
  Hole Peg Test Score: 22.7
[6]; 4 RR, R, 9 mo., Estriol Treatment
  Hole Peg Test Score: 22.5
[6]; 4 RR, R, 12 mo., Estriol Treatment
  Hole Peg Test Score: 21.5
[6]; 4 RR, R, 15 mo., Post Treatment
  Hole Peg Test Score: 21.0
[6]; 4 RR, R, 18 mo., Post Treatment
  Hole Peg Test Score: 21.4
[6]; 4 SP, 9 mo., Estriol Treatment
  EDSS Scores: 4.9
[6]; 4 SP, 12 mo., Estriol Treatment
  EDSS Scores: 5.0
[6]; 4 SP, 15 mo., Post Treatment
  EDSS Scores: 5.1
[6]; 4 SP, 18 mo., Post Treatment
  EDSS Scores: 5.0
[6]; 4 SP, L, 9 mo., Estriol Treatment
  Hole Peg Test Score: 22.7
[6]; 4 SP, L, 12 mo., Estriol Treatment
  Hole Peg Test Score: 24.8
[6]; 4 SP, L, 15 mo., Post Treatment
  Hole Peg Test Score: 26.7
[6]; 4 SP, L, 18 mo., Post Treatment
  Hole Peg Test Score: 25.0
[6]; 4 SP, R, 9 mo., Estriol Treatment
  Hole Peg Test Score: 30.2
[6]; 4 SP, R, 12 mo., Estriol Treatment
  Hole Peg Test Score: 31.7
[6]; 4 SP, R, 15 mo., Post Treatment
  Hole Peg Test Score: 29.4
[6]; 4 SP, R, 18 mo., Post Treatment
  Hole Peg Test Score: 34.0
[6]; 6 RR, 9 mo., Estriol Treatment
  EDSS Scores: 1.5
[6]; 6 RR, 12 mo., Estriol Treatment
  EDSS Scores: 1.7
[6]; 6 RR, 15 mo., Post Treatment
  EDSS Scores: 1.8
[6]; 6 RR, 18 mo., Post Treatment
  EDSS Scores: 1.8
[6]; RR patients, during treatment as compared to baseline
  Improvement in PASAT scores: 14.0%
[6]; SP patients, whole study
  Relapses: No relapses
[6]; during the study
  EDSS and 9 Hole Peg Test scores: no significant changes
[6]; six RR patients, post treatment period
  Relapses: two
[6]; six RR patients, re-treatment period
  Relapses: none
[6]; six RR patients, treatment period
  Relapses: one
[7]; estriol 8 mg/daily oral from day 10 post-partum, with Copaxone, third child
  Post-partum relapses: no relapses for 6 months
[7]; estriol 8 mg/daily with Copaxone and norethindrone 0.35 mg daily
  Adverse events: increased irregular menstrual bleeding
[7]; estriol 8 mg/daily with Copaxone, 6 months post-partum
  EDSS: 1
[7]; month 3 and 6
  Uterine ultrasounds: thin, not thick, endometrium
[7]; post partum month 4, estriol with Copaxone
  Gadolinium enhancement on brain MRI: no enhancement
[7]; post partum month 5, estriol with Copaxone
  Gadolinium enhancement on brain MRI: only one small enhancing lesion
[7]; post partum month 6, estriol with Copaxone
  Gadolinium enhancement on brain MRI: No new enhancement
[7]; post partum months 4-6, estriol with Copaxone
  T2 lesion load: stable throughout
[8]
  Delayed type hypersensitivity response (prototypic in vivo Th1 response): reduced
[9]
  Reduction of gadolinium-enhancing lesions on serial brain MRIs: > 80%
[10]
  TH2 (IL5, IL10) cytokine production by peripheral blood mononuclear cells: increased
  Th1 (TNFα, IFNγ) cytokine production by peripheral blood mononuclear cells: reduced
EAE mice; 90 day release pellets of 5 or 15 milligrams estriol, before or after disease onset
  EAE disease severity: reduced
EAE mice; [12]
  Inflammation and demyelination: reduced inflammation and demyelination
  Production of the Th2 cytokine IL-10: increase production
EAE mice; late pregnancy levels of estriol or supraphysiological doses of estradiol (5 times pregnancy levels)
  Onset of clinical EAE: delay the onset
[11]; RR group, four month re-treatment extension period
  Change in median T2 lesion volumes (lower): 2.0%
[11]; RR group, six month post treatment period
  Change in median T2 lesion volumes (higher): 7.4%
[11]; RR group, six month treatment period
  Change in median T2 lesion volumes: 0%
[11]; [13]
  Decrease in median total enhancing lesion numbers: 82%
  Decrease in median total enhancing lesion volumes: 79%
[11]; RR patients, last three months of the post treatment period
  Median total enhancing lesion volumes and numbers: returning to near baseline levels
[11]; [14]
  Decrease in median total enhancing lesion numbers: 82%
  Decrease in median total enhancing lesion volumes: 82%
[11]; all ten MS patients (6RR, 4SP), treatment period vs six month pretreatment baseline
  Total volume and number of enhancing lesions: decreased
